Read-outs that look alike come from different tables or passages of the source.
Columns and labels:
ctDNA [1] = assay: UV-visible absorption titration with ctDNA; type: binding, calf thymus; conditions: Tris–HCl buffer pH 7.2
tRNA [2] = assay: UV-visible absorption titration with tRNA; type: binding, yeast; conditions: Tris–HCl buffer pH 7.2
ctDNA [3] = assay: Ethidium bromide displacement, fluorescence quenching of EB-ctDNA adduct; type: binding, calf thymus; conditions: λem = 580 nm; for Quenching constant (Ksv), emission spectroscopy, ctDNA: EB 5 μM, DNA 50 μM, [Q] 10–200 μM
tRNA [4] = assay: Ethidium bromide displacement, fluorescence quenching of EB-tRNA adduct; type: binding, yeast; conditions: λem = 580 nm; for Quenching constant (Ksv), emission spectroscopy, tRNA: EB 5 μM, RNA 50 μM, [Q] 10–200 μM
[5] = target: T1, Bovine serum albumin (BSA) (Bos taurus, UniProt P02769); assay: BSA absorption titration; type: binding; conditions: λmax = 278 nm
[6] = target: T1, Bovine serum albumin (BSA); assay: BSA fluorescence quenching; type: binding; conditions: λmax = 345 nm; for Quenching rate constant (Kq), BSA emission: τ0 = 10^−8 s
[7] = test system: WI38 normal lung fibroblast cells; assay: MTT in vitro cytotoxicity, WI38; type: cell-based, human; conditions: read-out: In vitro cytotoxicity IC50, WI38
[8] = test system: HeLa cervical carcinoma cells; assay: MTT in vitro cytotoxicity, HeLa; type: cell-based, human; conditions: for Selective index (SI), HeLa: vs WI38; for IC50: read-out: In vitro cytotoxicity IC50, HeLa
[9] = test system: MCF7 breast carcinoma cells; assay: MTT in vitro cytotoxicity, MCF7; type: cell-based, human; conditions: for Selective index (SI), MCF7: vs WI38; for IC50: read-out: In vitro cytotoxicity IC50, MCF7
[10] = Solution stability by UV-visible spectroscopy in PBS; type: physicochemical; conditions: PBS pH 7.2 / DMSO, 2.5 × 10^−5 M, up to 48 h
[11] = test system: HeLa cervical carcinoma cells; conditions: read-out: In vitro cytotoxicity IC50, HeLa; 48 h ref [85]; cited from earlier work
[12] = test system: MCF7 breast carcinoma cells; conditions: read-out: In vitro cytotoxicity IC50, MCF7; 24 h ref [84]; cited from earlier work
HeLa cells [13] = assay: Cell cycle distribution by flow cytometry; type: cell-based, human; conditions: IC50 concentration, 24 h, control 20.3%
HeLa cells [14] = assay: Annexin V/propidium iodide flow cytometry; type: cell-based, human; conditions: IC50, 24 h

T1 sequence (P02769 25-607): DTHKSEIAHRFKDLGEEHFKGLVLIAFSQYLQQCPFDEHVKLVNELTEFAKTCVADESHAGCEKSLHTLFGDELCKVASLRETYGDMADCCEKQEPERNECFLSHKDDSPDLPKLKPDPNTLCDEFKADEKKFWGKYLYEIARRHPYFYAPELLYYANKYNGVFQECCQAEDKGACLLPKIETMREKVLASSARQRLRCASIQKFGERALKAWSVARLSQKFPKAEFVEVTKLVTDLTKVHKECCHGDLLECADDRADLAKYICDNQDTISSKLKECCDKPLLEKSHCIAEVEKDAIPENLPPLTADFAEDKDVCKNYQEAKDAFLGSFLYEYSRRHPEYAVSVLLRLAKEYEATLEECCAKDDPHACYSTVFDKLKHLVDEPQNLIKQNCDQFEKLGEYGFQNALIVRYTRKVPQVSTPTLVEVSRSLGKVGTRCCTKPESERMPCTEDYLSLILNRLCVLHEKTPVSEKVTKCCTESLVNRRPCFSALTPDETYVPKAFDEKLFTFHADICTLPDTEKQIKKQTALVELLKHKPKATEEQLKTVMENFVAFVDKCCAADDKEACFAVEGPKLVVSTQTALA

| Compound | % H* (hypochromism), absorption spectroscopy, ctDNA (ctDNA [1]) [%] | % H* (hypochromism), absorption spectroscopy, tRNA (tRNA [2]) [%] | % H, emission spectroscopy, ctDNA (ctDNA [3]) [%] | Quenching constant (Ksv), emission spectroscopy, ctDNA (ctDNA [3]) | % H, emission spectroscopy, tRNA (tRNA [4]) [%] | Quenching constant (Ksv), emission spectroscopy, tRNA (tRNA [4]) | % hyper (hyperchromism), BSA absorption spectroscopy [5] [%] | % hypo, BSA emission spectroscopy [6] [%] | Number of binding sites (n), BSA emission [6] | Stern–Volmer quenching constant (Ksv), BSA emission [6] | Quenching rate constant (Kq), BSA emission [6] [M⁻¹ s⁻¹] | IC50 ([7]; 24 h) [µM] | IC50 ([7]; 48 h) [µM] | Selective index (SI), HeLa ([8]; 24 h) | Selective index (SI), HeLa ([8]; 48 h) | IC50 ([8]; 24 h) [µM] | IC50 ([8]; 48 h) [µM] | Selective index (SI), MCF7 ([9]; 24 h) | IC50 ([9]; 24 h) [µM] | IC50 ([9]; 48 h) [µM] | further results |
| --- | --- | --- | --- | --- | --- | --- | --- | --- | --- | --- | --- | --- | --- | --- | --- | --- | --- | --- | --- | --- | --- |
| 3-acetylcoumarin benzoylhydrazone [HL] | 8.35 | 7.20 | 32.4 | 0.34 ×10^4 | 26.1 | 1.19 ×10^4 | 39.03 | 27.18 | 0.93 | 2.33 × 10^4 | 2.33e+12 | 71.1 ± 3.4 | 75 ± 3.5 | 1.15 | 1.57 | 61.6 ± 3.1 | 47.6 ± 2.9 | 1.74 | 40.8 ± 2.6 | 36.8 ± 2.4 | Selective index (SI), MCF7 ([9]; 48 h): 2.03; Solution stability (changes of UV-visible spectrum with time) [10]: insignificant changes up to the first 3 h then suffered hydrolysis in the aqueous media through the next 24 h |
| N.N.[Cl][Pt][Cl] [Cisplatin, cis-platin] |  |  |  |  |  |  |  |  |  |  |  |  |  |  |  |  |  |  |  |  | IC50 [11]: 67.6 ± 2 µM; IC50 [12]: 31.2 ± 1.8 µM |
| [Pt(HL)Cl]Cl [Complex C2] | 10.4 | 7.60 | 54.2 | 1.42 ×10^4 | 48.8 | 4.51 ×10^4 | 11.90 | 42.63 | 1.03 | 5.39 × 10^4 | 5.39e+12 | 29.5 ± 2.2 | 31.3 ± 2.2 | 3.63 | 4.95 | 8.12 ± 0.7 | 6.31 ± 0.4 | 2.39 | 12.3 ± 0.9 | 8.61 ± 0.6 | Selective index (SI), MCF7 ([9]; 48 h): 3.63; Cells in G2/M phase (HeLa cells [13]): 20.3%; Change of necrotic cells compared to untreated HeLa cells (HeLa cells [14]): 1.6 fold; Solution stability (changes of UV-visible spectrum with time) [10]: insignificant changes during the 48 h test |
| [Ag(HL)2]NO3 [Complex C3] | 6.81 | 6.66 | 50.1 | 0.52 ×10^4 | 26.9 | 1.6 ×10^4 | 40.74 | 35.69 | 0.92 | 4.98 × 10^4 | 4.98e+12 | 75.4 ± 3.6 | 63.6 ± 3.3 | 1.93 | 1.95 | 39.1 ± 2.5 | 32.5 ± 2.3 | 1.28 | 58.8 ± 2.9 | 54 ± 3 | Solution stability (changes of UV-visible spectrum with time) [10]: slight decrease in absorption intensity |

Source: paper PMC11184370 (RSC Advances, 2024)
